Residues, ends and D or L forms follow the SMILES beside them. *: point of attachment. Boc = CC(C)(C)OC(=O)*; Bn = c1ccc(C*)cc1
melting point	Compound
76 to 78 °C	CCN(CC)CCNC(=O)c1cc(I)cc2c(Cl)ccnc12
193 to 195 °C	Cc1cc(-c2ccc(-c3ccoc3)cc2)n(-c2ccc(S(C)(=O)=O)cc2)c1
185 to 186 °C	COc1ccc(-c2c(C(=O)c3ccccc3)c(CSc3nccn3C)nc3cc(OC)c(OC)cc23)cc1OC
233 to 234 °C	CCc1cc(-c2nc(C)c(-c3ccnc(Nc4ccc(S(=O)(=O)NCCO)cc4)n3)s2)ccn1
106 to 108 °C	CC1(C)CON(Cc2ccc(N)cc2Cl)C1=O
345 to 347 °C	Cc1cc(-n2cc(-c3ccc(S(C)(=O)=O)cc3)nc2C)cc2ccc(=O)[nH]c12
116 to 118 °C	c1ccc(CN2CCN(c3cccc4cccnc34)CC2)cc1
101 to 103 °C	CC(=O)SCCNC(=O)[C@H](CSC(=O)C(C)(C)C)NC(=O)C(C)C
223 to 227 °C	O=C(Cc1ccc([N+](=O)[O-])cc1)c1c(O)c2cccnc2n(-c2ccccc2)c1=O
179 to 187 °C	O=C(O)c1cc(Br)nc(Br)c1
150 to 151 °C	CCOC(=O)C1CCC(CS(=O)(=O)c2ccc(Oc3ccc(OC(F)(F)F)cc3)cc2)(N(O)C=O)CC1 (stereo unspecified)
221 to 224 °C	COc1cc2c(cc1C(F)(F)F)N(C(=O)Nc1cc(F)cc(I)c1)CC2
162 to 163 °C	N#CC(=CO)c1ccc(Cl)cc1Cl
> 260 °C	Clc1ccc(C2C3=C(CCS3)NC3=C2SCC3)cc1Cl
196 to 199 °C	O=C(Oc1ccccc1)c1ncn2c1CN(C(=O)N1CCCC1)c1ccccc1-2
211 °C	CCOc1cc(-c2cc(C(F)F)n3ncc(C(=O)Nc4cccc(S(C)(=O)=O)c4)c3n2)ccc1C(F)(F)F
185 °C	N#CCNC(=O)c1ccc(Cl)cc1
309 to 310 °C	CCn1c(=O)c2cc(O)c(O)cc2c2cc(O)c(O)cc21
58 to 62.5 °C	Cc1ccc(S(=O)(=O)N(F)CC(C)(C)C)cc1
176 to 179 °C	O=C(C#Cc1ccc(C(F)(F)F)cc1Cl)Nc1ccc2nc(N3CCCCC3)ccc2c1
188 to 189 °C	O=C(Cl)OCC1c2c(c3ccccc3c3ccccc23)-c2c1c1ccccc1c1ccccc21
88 to 91 °C	CCCCOP(=O)(CCCCCC1(C(=O)NCC(F)(F)F)c2ccccc2-c2ccccc21)OCCCC
67 to 71 °C	COC(=O)C(CC(C)C)NC(=O)C(C)NC(=O)C(Cc1ccc(OCc2ccccc2)cc1)NC(=O)C(COCc1ccccc1)NC(=O)OC(C)(C)C (stereo unspecified) (Boc-S(Bn)Y(Bn)AL-OMe; configuration not given here)
132 to 134 °C	COC(=O)CC[C@H]1CC[C@@H](NC(=O)N(NC(C)=O)c2ccc(C#N)cc2)CC1

melting point	Compound
128 to 129 °C	CC(C)n1c2cc(C(F)(F)F)ccc2c2oc(C(=O)Cl)cc21
191 to 193 °C	O=C1c2ccccc2S(=O)(=O)N1/C=C/CSc1nnnn1-c1ccccc1
223 to 224 °C	Cn1cc(-c2cc3cccnc3[nH]2)c2cc(NS(C)(=O)=O)ccc21
197 to 200 °C	COCCOc1cc2ncnc(NC3=CC(=O)C(N4CCCCC4)=CC3=O)c2cc1OC
173 to 175 °C	COC(=O)c1ccc(COc2ccc3cc(-c4csc(-c5ccccc5)n4)ccc3c2Br)cc1
138 to 144 °C	Oc1cc(CCl)nc(C(Cl)(Cl)Cl)n1
177 to 178 °C	Cn1cc(F)cnc1=O
107 to 108 °C	CCCN(CCC)C(=O)COc1nc(-c2ccccc2)nc(C)c1Br
213 to 216 °C	O=C(O)N1C=NN2c3cccnc3N(c3cccc(Cl)c3)CC12 (stereo unspecified)
158 to 159 °C	CC(C)(C)OC(=O)[C@@H](N)Cc1ccc(O)c(I)c1
179 to 181 °C	Nc1cc(C(=O)O)cc(NCc2ccccc2)c1-c1ccccc1
87 to 88 °C	CC[C@H](C)[C@H](NC(=O)[C@@H]1CCCN1C(=O)OCc1ccccc1)C(=O)NCC(C)C
215 to 217 °C	ClC1=Nc2ccccc2Oc2cscc21
195 to 196 °C	CC1(c2nn(-c3ccc(N)cc3Cl)c(=O)o2)CC1
96 to 98 °C	CC(=O)OCC1OC(n2cc(C)c(=O)[nH]c2=O)CC1N=[N+]=[N-] (stereo unspecified)
103 to 105 °C	Cc1cc(F)ccc1-c1nc(OCCNC(=O)OC(C)(C)C)nc2c1ccc(=O)n2-c1c(F)cccc1F
55 to 61 °C	CCOC(=O)[C@H]1O[C@@H]1[C@H](Cc1ccccc1)NC(=O)OC(C)(C)C
92 to 94 °C	c1ccc(C2=N[C@@H](c3ccccc3)[C@H](N3CCOCC3)S2)cc1 (relative stereo)
125 to 129 °C	NCc1ccc(C(=O)NC2CCN(C3CCCCC3)C2)cc1 (stereo unspecified)
177 to 182 °C	CCCc1cc(Cl)c2oc(C(=O)c3ccc(Cl)cc3)c(C)c2c1OC(=O)c1ccc(Cl)cc1
147 °C	Cc1nn(C)cc1C(=O)Nc1cccc2c1CCC2(C)C
143 to 144 °C	Cc1c(C)c2c(c(C)c1NC(=O)CC(C)(C)C)[C@@H](c1ccc(C(C)C)cc1)[C@H](C)O2 (relative stereo)
185 to 187 °C	Cc1ccnc(Nc2nc(-c3ccc(-c4ccccn4)s3)cs2)c1
217 to 219 °C	COC(=O)c1cc(N)c(NC(C)=O)c(Br)c1O

melting point	Compound
143 to 144 °C	COCC(C)Nc1cc(-c2ccnc(Nc3cccc(Cl)c3)n2)ccn1 (stereo unspecified)
97 to 100 °C	COc1cc(CC(=O)O)ccc1OCCc1ccccc1
171 to 173 °C	O=[N+]([O-])c1cc(N=c2sc(=S)n3n2CCCC3)c(F)cc1Cl
119 to 120 °C	CCOC(=O)c1c(CC)nn2c(-c3cccnc3)ccnc12
250 to 255 °C	CC12CC=C3c4ccc(O)cc4CCC3C1CCC2=O (stereo unspecified)
185 to 187 °C	C#CC1(O)CCC2C3CCC4=CC(=O)CCC4C3C(C(F)F)CC21C (stereo unspecified)
69 to 71 °C	Fc1ccc(-c2ncnc(C(F)F)c2Cl)c(F)c1
157 to 165 °C	Cn1cc2c(nc(NC(=O)Nc3ccc(CC(=O)NCCOCCOCCNC(=O)OC(C)(C)C)cc3)n3nc(-c4ccco4)nc23)n1
82 °C	COC(=O)CN(CC(COc1ccc(Cl)cc1)OC(C)=O)c1ccccc1 (stereo unspecified)
121 to 124 °C	COc1cc(OC)cc(-c2nsnc(Cl)c2=O)c1
191 to 193 °C	CC#CC1(O)CCC2C3CCC4=CC(=O)CCC4C3C(C(F)F)CC21C (stereo unspecified)
73 °C	CCOC(=O)C(CCC(=O)c1ccc(F)cc1)(NC(C)=O)C(=O)OCC
196 to 197 °C	O=C1NCCc2c(-c3ccc(F)cc3F)[nH]c3cccc1c23
99 °C	CCOC(=O)COc1ccc(N(C)c2cc3ccc(Cl)cc3c(Cl)n2)cc1
118 to 121 °C	CC(NC=O)c1ccc(Nc2nccc(-c3cccnc3)n2)cc1 (stereo unspecified)
156 to 157 °C	Cc1cc(=O)n(C)c2c1C(=O)CC(c1ccsc1)C2 (stereo unspecified)
93 to 94 °C	Cc1cc(C)n(-c2ccc(N(C)N)nn2)n1
137 to 139 °C	O=C(Oc1ccccc1)N1CCC(c2nn(C(=O)c3ccccc3)c3cc(F)ccc23)CC1
93 to 98 °C	Cc1cc(N)cnc1-c1ccccc1
144 to 145 °C	COc1ccc(C[C@H](C[C@H](O)[C@H](Cc2ccccc2)NC(=O)OC(C)(C)C)C(=O)O)c(OC)c1
> 250 °C	Cc1ccn2cc(CC(=O)N3CCN(c4ccc5[nH]c(=O)ccc5c4)CC3)nc2c1
176 to 177 °C	CCOC(=O)C1=C(C)NC(c2ccc([N+](=O)[O-])cc2)=C(C(=O)OCC)C1c1cccc([N+](=O)[O-])c1 (stereo unspecified)
100 °C	COC(=O)CCCOc1cc([N+](=O)[O-])c(CO)cc1OC
154 to 155 °C	Cc1oc(-c2ccccc2)nc1CCC(O)c1ccc(CC2OC(=O)NC2=O)cc1 (stereo unspecified)

melting point	Compound
211 to 212 °C	O=C1NN=C(c2ccc(C3CCCCC3)cc2)C2CC12 (stereo unspecified)
147 to 148 °C	O=C(O)C(=O)N1CCC(Cc2ccc(Cl)cc2)CC1
180 to 182 °C	Cc1c(C(=O)O)ccc2c1OCO2
208 to 209 °C	CN1CCN(Cc2ccc(C(=O)Nc3cccc(Nc4ncc(C#N)c(-c5cccs5)n4)c3)cc2)CC1
99 to 100 °C	CC(C)c1nc(C(C)C)c(CSc2cccc(F)c2)c(-c2ccc(F)cc2)c1CO
122 °C	CCCc1nc(SC(F)F)c(C(=O)O)n1Cc1ccc(-c2ccccc2S(=O)(=O)NC(=O)NCc2ccc(F)cc2)cc1
84 to 85 °C	CC1(C)CC(=O)Oc2cc(O)ccc21
53 to 57 °C	CCCCNC(=O)C(C)(C)n1cc(C)c(-c2ccccc2)n1
191 to 193 °C	Cc1cc(O)nc(CCCCOc2nccc(NC(N)=NCC(F)(F)F)n2)n1
136 °C	COCCOc1ccc(/C=C/C(=O)NS(=O)(=O)c2ccccc2)c(Oc2ncc(C(F)(F)F)cc2Cl)c1
154 to 155 °C	CC(CSC(=O)c1ccccc1)C(=O)N1Cc2ccccc2CC1C(=O)O (stereo unspecified)
146 to 149 °C	CCCCCCC(Oc1ccc(NC(=O)NC(=O)c2c(Cl)cccc2Cl)cc1)c1ccccc1 (stereo unspecified)
-15.4 °C	CCC[C@H]1CC[C@H](c2ccc(F)c(F)c2)CC1
161 to 162 °C	NC(=O)c1c(F)cccc1[N+](=O)[O-]
130 °C	COc1ccc(NC(=O)C2CCc3c(OCc4ccccc4)cccc32)c(OC)c1 (stereo unspecified)
139 to 142 °C	O=C(O)C=CC(=O)Oc1ccc(Nc2ccccc2)cc1
199 to 200 °C	CS(=O)(=O)Nc1cc2occ(C=NO)c(=O)c2cc1Oc1ccccc1
110 °C	C=CCSc1nc(=O)n(C(=O)NC)s1
252 to 253 °C	COc1cc2ncnc(NC3=CC(=O)C4(c5ccccc5)OC4C3=O)c2cc1OC (stereo unspecified)
233 to 234 °C	O=C(O)c1ccc(-c2nc(-c3ccc(C(F)(F)F)cc3)no2)c([N+](=O)[O-])c1
181 to 183 °C	CCOC(=O)c1[nH]c2cc(-c3ccccc3)ccc2c1N

Compound	melting point
CC(C)NC(=O)N1N=C(c2ccc([N+](=O)[O-])cc2)c2cc(Cl)ccc2CC1C (stereo unspecified)	172 to 174 °C
O=C1NC(=O)C(c2ccc(Oc3ccc(Cl)cc3)cc2)(N2CCN(CC(O)CO)CC2)C(=O)N1 (stereo unspecified)	257 to 258 °C
CCS(=O)(=O)CCNc1c(S(C)=O)c(C#N)nn1-c1c(Cl)cc(C(F)(F)F)cc1Cl (stereo unspecified)	131 to 132 °C
